Values after ≈ are worked out from the molar mass of the structure shown.
Tests used:
[1] = system: Trichoderma sp. isol. MB test; assay: Stick test on treated Scots Pine; type: cell-based; settings: 3 weeks exposure
Description: (§1) [table] […] GA medium was used as a less nutrient-rich alternative to PDA, in order to prevent the test fungi from bypassing the specific mode of action of anilinopyrimidines like cyprodinil, pyrimethanil and […].

[2] = system: Humicola grisea MG 28; assay: Stick test on treated Scots Pine; type: cell-based; settings: 3 weeks exposure
Description: as §1

[3] = system: Aureobasidium pullulans P 268; assay: Stick test on treated Scots Pine; type: cell-based; settings: 3 weeks exposure
Description: as §1

[4] = system: Aspergillus niger CBS 554.65; assay: Stick test on treated Scots Pine; type: cell-based; settings: 3 weeks exposure
Description: as §1

[5] = system: Chaetomium globosum ATCC 6205; assay: Stick test on treated Scots Pine; type: cell-based; settings: 3 weeks exposure
Description: as §1

[6] = system: Trichoderma viride CBS 189.79; assay: Stick test on treated Scots Pine; type: cell-based; settings: 3 weeks exposure
Description: as §1

[7] = system: Cladosporium cladosporioides IHEM 3795; assay: Stick test on treated Scots Pine; type: cell-based; settings: 3 weeks exposure
Description: as §1

[8] = system: Coniophora puteana BAM 15; assay: Stick test on treated Scots Pine; type: cell-based; settings: 3 weeks exposure
Description: as §1

[9] = system: Coriolus versicolor CTB 863A; assay: Stick test on treated Scots Pine; type: cell-based; settings: 3 weeks exposure
Description: as §1

[10] = system: Aureobasidium pullulans P 268 (Ap1); assay: Poison plate assay; type: cell-based; settings: 168 h, evaluated after one week
[11] = system: Humicola grisea MG 28 (Hg); assay: Poison plate assay; type: cell-based; settings: 168 h, evaluated after one week
[12] = system: Aspergillus niger CBS 554.65 (An); assay: Poison plate assay; type: cell-based; settings: CBS554, 168 h, evaluated after one week
[13] = system: Chaetomium globosum CEB 1218.2 (Cg); assay: Poison plate assay; type: cell-based; design: key: When no fungal growth was observed, the abbreviation “ng” was used; settings: evaluated after one week
[14] = system: Aspergillus niger and A. carbonarius; settings: vineyards; Tjamos et al., Journal of Phytopathology (2004); cited from earlier work

SMILES	Threshold value, T. sp. ([1]; medium GA) [ppm]	Threshold value, T. sp. ([1]; medium PDA) [ppm]	Threshold value, H. grisea ([2]; medium GA)	Threshold value, H. grisea ([2]; medium PDA)	Threshold value, A. pullulans ([3]; medium GA)	Threshold value, A. pullulans ([3]; medium PDA) [ppm]	Threshold value, A. niger ([4]; medium GA) [ppm]	Threshold value, A. niger ([4]; medium PDA)	Threshold value, C. globosum ([5]; medium GA)	Threshold value, C. globosum ([5]; medium PDA)	Threshold value, T. viride ([6]; medium GA) [ppm]	Threshold value, T. viride ([6]; medium PDA) [ppm]	Threshold value, C. cladosporioides ([7]; medium GA)	Threshold value, C. cladosporioides ([7]; medium PDA) [ppm]	Threshold value, C. puteana ([8]; medium GA)	Threshold value, C. puteana ([8]; medium PDA) [ppm]	Threshold value, C. versicolor ([9]; medium GA) [ppm]	Threshold value, C. versicolor ([9]; medium PDA) [ppm]	MIC ([10]; medium CDA) [µg/mL]	MIC ([10]; medium GA) [µg/mL]	further results
Cc1cc(C)nc(Nc2ccccc2)n1 [pyrimethanil, 4,6-dimethyl-N-phenyl-2-pyrimidinamine]	>6400	>6400	800-1600 ppm	1600-3200 ppm	1600-3200 ppm	>6400	>6400	>6400 ppm	800-1600 ppm	>6400 ppm	>6400	>6400	1600-3200 ppm	>6400	>6400 ppm	>6400	>6400	>6400	20 (≈ 100 µM)	20 (≈ 100 µM)	MIC ([10]; medium GGA): 20 µg/mL (≈ 100 µM); MIC ([11]; medium CDA): > 20 µg/mL; MIC ([11]; medium GA): > 20 µg/mL; MIC ([11]; medium GGA): > 20 µg/mL; MIC ([12]; medium CDA): < 0.6 µg/mL; MIC ([12]; medium GA): < 0.6 µg/mL; MIC ([12]; medium GGA): 20 µg/mL (≈ 100 µM); MIC value, Cg ([13]; medium CDA): ng; MIC value, Cg ([13]; medium GA): ng; MIC value, Cg ([13]; medium GGA): ng
CC#Cc1cc(C)nc(Nc2ccccc2)n1 [mepanipyrim, 4-methyl-6-(prop-1-ynyl)-N-phenyl-2-pyrimidinamine]	>6400	>6400	200-400 ppm	>6400 ppm	>6400 ppm	>6400	>6400	1600-3200 ppm	200-400 ppm	>6400 ppm	>6400	>6400	>6400 ppm	>6400	>6400 ppm	>6400	>6400	>6400	10 (≈ 44.8 µM)	20 (≈ 89.6 µM)	MIC ([10]; medium GGA): 20 µg/mL (≈ 89.6 µM); MIC ([11]; medium CDA): 10 µg/mL (≈ 44.8 µM); MIC ([11]; medium GA): 20 µg/mL (≈ 89.6 µM); MIC ([11]; medium GGA): 20 µg/mL (≈ 89.6 µM); MIC ([12]; medium CDA): < 0.6 µg/mL; MIC ([12]; medium GA): < 0.6 µg/mL; MIC ([12]; medium GGA): < 0.6 µg/mL; MIC value, Cg ([13]; medium CDA): ng; MIC value, Cg ([13]; medium GA): ng; MIC value, Cg ([13]; medium GGA): ng
COC(=O)Nc1nc2ccccc2[nH]1 [carbendazim]	–	–	–	–	–	–	–	–	–	–	–	–	–	–	–	–	–	–	–	–	Control of Aspergillus spp. infection [14]: ineffective
Cc1cc(C2CC2)nc(Nc2ccccc2)n1 [cyprodinil, 4-cyclopropyl-6-methyl-N-phenyl-2-pyrimidinamine]	>6400	>6400	200-400 ppm	800-1600 ppm	3200-6400 ppm	>6400	>6400	>6400 ppm	100-200 ppm	1600-3200 ppm	>6400	>6400	800-1600 ppm	>6400	3200-6400 ppm	>6400	>6400	>6400	5 (≈ 22.2 µM)	10 (≈ 44.4 µM)	MIC ([10]; medium GGA): 5 µg/mL (≈ 22.2 µM); MIC ([11]; medium CDA): 10 µg/mL (≈ 44.4 µM); MIC ([11]; medium GA): 10 µg/mL (≈ 44.4 µM); MIC ([11]; medium GGA): 20 µg/mL (≈ 88.8 µM); MIC ([12]; medium CDA): < 0.6 µg/mL; MIC ([12]; medium GA): < 0.6 µg/mL; MIC ([12]; medium GGA): < 0.6 µg/mL; MIC value, Cg ([13]; medium CDA): ng; MIC value, Cg ([13]; medium GA): ng; MIC value, Cg ([13]; medium GGA): ng

From patent US20090069356A1, “USE OF ANILINOPYRIMIDINES IN WOOD PROTECTION” (priority 2004, published 2009)
